According to US20220370468A1, “Methods of treating sleep disorders associated with pain” (Astellas Pharma Global Development, Inc., priority 2019, published 2022):

Experiments:
Type in all cases: in vivo, human
[1] = system: patients with fibromyalgia; assay: Phase 2a study: Fibromyalgia Impact Questionnaire Revised (FIQR); settings: for FIQR total score improvement from baseline, LS mean difference versus placebo: ANCOVA
Experimental: (§1) A phase 2a, randomized, double-blind, placebo-controlled, parallel group study was conducted at 24 sites in the United States to assess the analgesic efficacy and safety of the compound of Formula (I) in patients with fibromyalgia. The study consisted of the following: a screening period of up to 42 days, which included a washout period and a 7-day baseline diary run-in; a 57-day double-blind randomized treatment period with site visits at Days 1, 15, 29, and 57; and a 4-week follow-up period consisting of a clinic visit after 2 weeks and a phone call after 4 weeks. The study was carried out in accordance with the Declaration of Helsinki and approved by the relevant Institutional Review Boards. All participants provided written informed consent prior to the initiation of any study procedures.
Male and female patients aged 18 to 80 years were included in the trial if they met the American College of Rheumatology (ACR) 1990 and 2010 fibromyalgia diagnostic criteria at screening (Wolfe et al., 1990; Wolfe et al., 2010b). The core diagnostic criteria for fibromyalgia are defined by the 1990 criteria (Wolfe et al., 1990), and while ACR has published newer criteria, the 1990 version is still commonly utilized in clinical trials. To meet ACR 1990 criteria, patients must have had widespread pain for at least 3 months, defined as the presence of pain on the right and left sides of the body, pain above and below the waist, and pain in the axial skeleton (cervical spine, anterior chest, thoracic spine, or low back) (Wolfe et al., 1990). They must also have had pain in at least 11 of 18 tender point sites on digital palpation performed with an approximate force of 4 kg. To meet the ACR 2010 criteria, patients needed to have a widespread pain index (WPI) score of ≥7 and a symptom severity (SS) scale score ≥5, or a WPI score 3-6 and an SS scale score ≥9 (Wolfe et al., 2010b). Symptoms must have been present at a similar level for at least 3 months and patients must have been free of any other disorder that could have explained the pain.
Eligible patients were randomized 1:1 using Interactive Response Technology to receive oral Compound of Formula (I) 15 mg (three capsules of 5 mg) or matching placebo capsules, each given once daily in the morning, with or without food, for 8 weeks.
(§2) Secondary efficacy endpoints included the number of patients achieving a ≥30% or ≥50% reduction in mean daily average pain score assessed by NRS (0 to 10 scale) from baseline to Week 8 and end of treatment (EOT; Day 57); change from baseline to Weeks 2, 4, 8, and EOT in the FIQR function, symptoms, and overall impact subscales; and overall improvement assessed by patient global impression of change (PGIC) (Rampakakis et al., 2015) at Weeks 2, 4, 8, and EOT.
Questionnaires on efficacy, such as FIQR and PGIC, were completed during study visits. The FIQR captures the full spectrum of problems related to fibromyalgia and the responses to therapy, ranging from activities of daily living, overall impact, and symptoms (Bennett et al., 2009). Patients answered each question on an 11-point NRS over a recall period of the last 7 days or the last time the activity was performed (for the physical function domain if the activity was not performed within the 7-day recall period). The PGIC is a self-administered 7-point Likert scale that asks patients to evaluate their fibromyalgia relative to baseline (from “very much improved” to “very much worse”) (Rampakakis et al., 2015).
In FIG. 2, the change from baseline in FIQR total score is depicted. The FIQR total score represents the sum of the three sub scale scores: symptom, function, and overall impact. The symptom sub scale accounts for 50%, the function subscale accounts for 30%, and the overall impact subscale accounts for 20% of the total score. Data from double-blind period are presented as LS mean±standard error; data from follow-up period are presented as mean±standard error. […]

[2] = system: patients with fibromyalgia; assay: Phase 2a randomized double-blind placebo-controlled study: mean daily average pain score (NRS)
Experimental: as §1
Male and female patients aged 18 to 80 years were included in the trial if they met the American College of Rheumatology (ACR) 1990 and 2010 fibromyalgia diagnostic criteria at screening (Wolfe et al., 1990; Wolfe et al., 2010b). The core diagnostic criteria for fibromyalgia are defined by the 1990 criteria (Wolfe et al., 1990), and while ACR has published newer criteria, the 1990 version is still commonly utilized in clinical trials. […]
The primary efficacy endpoint for pain was change from baseline to Week 8 in mean daily average pain score assessed by the Numeric Rating Scale (NRS; 0 to 10 scale). […]
as §2

[3] = system: patients with fibromyalgia; assay: Phase 2a study: patient global impression of change (PGIC); settings: 15 mg once daily
Experimental: as §1, with “procedures. […]” for “procedures.”
as §2, with “EOT. […]” for “EOT.”

`Cc1sc2cc(Cl)ccc2c1-c1ccc(N2CCO[C@H](CNC3CCC3)C2)c(C(=O)O)c1` [Compound of Formula (I)] was tested, and the “FIQR total score improvement from baseline, LS mean difference versus placebo” value ([1]; EOT, LOCF imputation, P=0.050) was −3.75, the “FIQR overall impact subscale, LS mean difference versus placebo” value ([1]; Week 4, P=0.018) was −1.34 and the “FIQR total score reduction from baseline, LS mean difference versus placebo” value ([1]; Week 4, P=0.033) was −4.14. For the same molecule, the “FIQR symptoms subscale, LS mean difference versus placebo” value ([1]; Week 4, P=0.039) was −3.73, the “FIQR function subscale, LS mean difference versus placebo” value ([1]; Week 4, P=0.103) was −2.97 and the “reduction from baseline in FIQR function, symptoms subscale, or overall impact subscale versus placebo” value ([1]; baseline to Week 8) was “no statistically significant differences”. The “FIQR total score improvement from baseline, LS mean difference versus placebo” value ([1]; baseline to Week 8, mBOCF imputation, P=0.036) was −4.10, the “FIQR total score reduction from baseline, LS mean difference versus placebo” value ([1]; baseline to Week 8, MMRM analysis, P=0.093) was −3.27 and the “responder analysis of mean daily average pain score (≥30% or ≥50% reduction) versus placebo” value ([2]; 15 mg once daily) was “no statistically significant differences”. For the same molecule, the “change from baseline in mean daily average pain score versus placebo” value ([2]; Weeks 2, 6 and 7, FIG. 1) was “statistically significant treatment differences in favor of Compound of Formula (I)”, the “change from baseline in mean daily average pain score (NRS 0-10), primary endpoint” value ([2]; baseline to Week 8, 15 mg oral once daily, placebo −1.26) was −1.60 and the “overall patient improvement assessed by PGIC versus placebo” value [3] was “no statistically significant differences”.
